In the NIST ThermoML archive (doi:10.1021/acs.jced.9b00449):
Numbers after ± are expanded uncertainties.

Test: mn = molality of the nth substance listed, in mol/kg
Conditions: 100 kPa, Liquid; for kinematic viscosity: Capillary tube (Ostwald / Ubbelohde) method; for mass density: Pycnometric method

[K+].[O]=[V](=[O])[O-] [potassium vanadate] + O
Conditions	kinematic viscosity [m2/s]	mass density [kg/m3]
293.15 K, m1 = 0.615	1.03e-06 ± 1.2e-08	1063 ± 11
303.15 K, m1 = 0.874	8.5e-07 ± 4e-08	1083 ± 16
313.15 K, m1 = 1.223	7.51e-07 ± 2e-08	1126 ± 11
323.15 K, m1 = 1.884	7.42e-07 ± 3.6e-08	1171 ± 12
